Assay results from PubChem BioAssay (NCI).
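Dose response: 5 concentrations. Exposure: 48 h. Format: 96-well plates. Endpoint: linear interpolation; highest concentration if not reached. TGI is the concentration that stops growth completely.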

Legend:
Experiment in all cases: NCI-60 cell line screen, 48 h
NCI-H226 lung = tested on: NCI-H226 lung
UACC-62 melanoma = tested on: UACC-62 melanoma
COLO 205 colon = tested on: COLO 205 colon
MOLT-4 leukemia = tested on: MOLT-4 leukemia
A549 NSCLC = tested on: A549 NSCLC
MDA-MB-435 = tested on: MDA-MB-435
HCT-15 colon = tested on: HCT-15 colon
HCT-116 colon = tested on: HCT-116 colon
OVCAR-8 ovarian = tested on: OVCAR-8 ovarian
DU-145 prostate = tested on: DU-145 prostate
SF-295 CNS = tested on: SF-295 CNS
ACHN renal = tested on: ACHN renal
HT29 colon = tested on: HT29 colon
NCI-H23 lung = tested on: NCI-H23 lung
NCI-H460 lung = tested on: NCI-H460 lung
OVCAR-4 ovarian = tested on: OVCAR-4 ovarian
M14 melanoma = tested on: M14 melanoma
SK-MEL-5 melanoma = tested on: SK-MEL-5 melanoma
OVCAR-3 ovarian = tested on: OVCAR-3 ovarian

| SMILES | TGI (NCI-H226 lung) | TGI (UACC-62 melanoma) | TGI (COLO 205 colon) | TGI (MOLT-4 leukemia) | TGI (A549 NSCLC) | TGI (MDA-MB-435) | TGI (HCT-15 colon) | TGI (HCT-116 colon) | TGI (OVCAR-8 ovarian) | TGI (DU-145 prostate) | TGI (SF-295 CNS) | TGI (ACHN renal) | TGI (HT29 colon) | TGI (NCI-H23 lung) | TGI (NCI-H460 lung) | TGI (OVCAR-4 ovarian) | TGI (M14 melanoma) | TGI (SK-MEL-5 melanoma) | TGI (OVCAR-3 ovarian) |
| --- | --- | --- | --- | --- | --- | --- | --- | --- | --- | --- | --- | --- | --- | --- | --- | --- | --- | --- | --- |
| Fc1ccc2c3c([nH]c2c1)CCNC3 | > 100 µM | > 100 µM | > 100 µM | > 100 µM | > 100 µM | > 100 µM | > 100 µM | > 100 µM | > 100 µM | > 100 µM | > 100 µM | > 100 µM | > 100 µM | > 100 µM | > 100 µM | > 100 µM | > 100 µM | > 100 µM |  |
| O=c1c2cc(S(=O)(=O)Nc3c(Cl)cccc3Cl)ccc2ncn1NS(=O)(=O)c1ccc2ccccc2c1 | 35.1 µM | > 62.5 µM | > 62.5 µM | > 62.5 µM | > 62.5 µM | > 62.5 µM | > 62.5 µM | > 62.5 µM | > 62.5 µM | > 62.5 µM | > 62.5 µM | > 62.5 µM | > 62.5 µM | > 62.5 µM | > 62.5 µM | > 62.5 µM | > 62.5 µM |  | > 62.5 µM |
| O=C1COCCN1C(=O)c1ccccc1Cl | > 100 µM | > 100 µM |  |  | > 100 µM | > 100 µM | > 100 µM | > 100 µM | > 100 µM | > 100 µM | > 100 µM | > 100 µM | > 100 µM | > 100 µM | > 100 µM | > 100 µM | > 100 µM | > 100 µM | > 100 µM |
| O=c1cc(-c2cccc(OCc3ccccc3)c2)[nH]c2cc3c(cc12)OCO3 | 7.79 µM | 12.3 µM | > 22.7 µM | > 100 µM | > 22.7 µM | 0.36 µM |  | > 100 µM | 9.87 µM | > 100 µM | 14.4 µM | 64.3 µM | > 97.3 µM | 15 µM | 11.2 µM | > 27.8 µM | > 84.5 µM | > 100 µM | 3.58 µM |
| CCN(CC)CCCNc1ncc(C)c2c1c1ccc3c(O)cccc3c1n2C | 26.2 µM | 49.2 µM | 17.5 µM | 1.84 µM | 2.34 µM | 33.8 µM |  | 2.28 µM | 3.5 µM | 3.79 µM | 4.76 µM | 12.8 µM | 5.04 µM | 4.82 µM |  | 3.45 µM | 9.07 µM | 13.4 µM | 18.2 µM |
